Where a name gives a salt, the structure may show the parent alone.
The molecules below were run against CDK4/cyclin D1 (Homo sapiens, UniProt P11802) (assay: CDK4/cyclin D1 Flashplate test in 96-well format).
Type: biochemical
Summary of the method: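 CDK4-HA/cyclin D1-(His)6 complex from coinfected Sf9 cells, 25 nM final, phosphorylating 1.8 μM biotinylated pRb peptide in HEPES pH 7.5 with MgCl2, DTT and [γ-33P]ATP at 30 °C. 33P incorporation captured on streptavidin Flashplates and read by scintillation counting; IC50 from seven-point inhibitor dilutions.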

Sequence of CDK4/cyclin D1 (P11802 whole entry): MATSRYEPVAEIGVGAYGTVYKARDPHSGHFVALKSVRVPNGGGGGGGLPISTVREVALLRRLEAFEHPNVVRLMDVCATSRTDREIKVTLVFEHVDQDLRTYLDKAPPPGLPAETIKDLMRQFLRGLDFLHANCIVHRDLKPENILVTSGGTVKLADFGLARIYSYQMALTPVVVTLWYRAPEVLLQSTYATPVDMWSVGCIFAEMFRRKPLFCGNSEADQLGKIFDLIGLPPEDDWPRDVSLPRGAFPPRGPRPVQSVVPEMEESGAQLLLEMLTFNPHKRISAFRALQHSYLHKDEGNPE
Sequence of CDK4/cyclin D1 (P24385 whole entry partner): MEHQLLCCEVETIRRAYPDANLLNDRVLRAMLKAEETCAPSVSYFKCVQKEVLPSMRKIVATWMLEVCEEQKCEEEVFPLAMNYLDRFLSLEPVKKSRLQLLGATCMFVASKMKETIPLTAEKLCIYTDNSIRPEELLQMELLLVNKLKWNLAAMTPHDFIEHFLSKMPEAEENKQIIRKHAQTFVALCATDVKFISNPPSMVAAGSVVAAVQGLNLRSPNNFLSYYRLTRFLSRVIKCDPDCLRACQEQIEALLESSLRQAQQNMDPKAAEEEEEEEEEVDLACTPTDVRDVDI

| SMILES | IC50 |
| --- | --- |
| O=C(Nc1nc2ccc(OS(=O)(=O)c3ccc(-c4ccccn4)s3)cc2s1)C1CC1 [Example 85, 5-pyridin-2-ylthiophene-2-sulfonic acid 2-(cyclopropanecarbonylamino)benzothiazol-6-yl ester] | > 10000 nM |
| CNc1ccc(S(=O)(=O)Oc2ccc3nc(NC(=O)C4CC4)sc3c2)cc1 [Example 10, 4-methylaminobenzenesulfonic 2-(cyclopropane-carbonylamino)benzothiazol-6-yl ester] | 944 nM |
| CC(C)(O)CNc1ccc(S(=O)(=O)Oc2ccc3nc(NC(=O)C4CC4)sc3c2)cc1 [Example 11, 4-(2-hydroxy-2-methylpropylamino)benzene-sulfonic 2-(cyclopropanecarbonylamino)benzothiazol-6-yl ester] | 924 nM |
| CC(C)N(CCNc1ccc(S(=O)(=O)Oc2ccc3nc(NC(=O)C4CCCC4)sc3c2)cc1)C(C)C [Example 45, 4-(2-Diisopropylaminoethylamino)benzenesulfonic acid 2-(cyclo-pentanecarbonylamino)benzothiazol-6-yl ester] | 341 nM |
| CC(C)(O)CNc1ccc(S(=O)(=O)Oc2ccc3nc(NC(=O)CCc4cccnc4)sc3c2)cc1 [Example 63, 4-(2-hydroxy-2-methylpropylamino)benzene-sulfonic acid 2-(3-pyrid-3-ylpropionylamino)benzothiazol-6-yl ester hydro-chloride] | 1390 nM |
| CC(C)(CNc1ccc(S(=O)(=O)Oc2ccc3nc(NC(=O)C4CC4)sc3c2)cc1)OP(=O)(O)O [Example 89, 4-(2-methyl-2-phosphonooxypropylamino)benzene-sulfonic acid 2-(cyclopropanecarbonylamino)benzothiazol-6-yl ester] | 3320 nM |
| O=C(Nc1nc2ccc(OS(=O)(=O)c3cccs3)cc2s1)C1CC1 [Example 33h, Thiophene-2-sulfonic acid 2-(cyclopro-panecarbonylamino)benzothiazol-6-yl ester] | 358 nM |
| CC(C)N(CCNc1ccc(S(=O)(=O)Oc2ccc3nc(NC(=O)C4(N)CCCC4)sc3c2)cc1)C(C)C [Example 41, 4-(2-diisopropylaminoethylamino)benzenesulfonic acid 2-[(1-aminocyclopentanecarbonyl)amino]benzothiazol-6-yl ester] | > 10000 nM |
| O=C(Nc1nc2ccc(OS(=O)(=O)c3ccc(NCCCn4ccnc4)cc3)cc2s1)C1CC1 [Example 9, 4-(3-imidazol-1-ylpropylamino)benzenesulfonic 2-(cyclopropanecarbonylamino)benzothiazol-6-yl ester] | 931 nM |

The next molecules have a lower IC50 than those just listed; values first:

| IC50 | SMILES |
| --- | --- |
| 313 nM | COCC(=O)Nc1nc2ccc(OS(=O)(=O)c3ccc(NCCN(C(C)C)C(C)C)cc3)cc2s1 [Example 44, 4-(2-Diisopropylaminoethylamino)benzenesulfonic acid 2-(2-methoxyacetylamino)benzothiazol-6-yl ester] |
| 265 nM | CC(C)N(CCNc1ccc(S(=O)(=O)Oc2ccc3nc(NC(=O)C4CCC4)sc3c2)cc1)C(C)C [Example 60, 4-(2-diisopropylaminoethylamino)benzenesulfonic acid 2-(cyclobutanecarbonylamino)benzothiazol-6-yl ester hydrochloride] |
| 221 nM | CC(C)C(=O)Nc1nc2ccc(OS(=O)(=O)c3ccc(NCCN(C(C)C)C(C)C)cc3)cc2s1 [Example 55, 4-(2-diisopropylaminoethylamino)benzenesulfonic acid 2-isobutyrylaminobenzothiazol-6-yl ester hydrochloride] |
| 205 nM | CC(C)NCCNc1ccc(S(=O)(=O)Oc2ccc3nc(NC(=O)C4CC4)sc3c2)cc1 [Example 53, 4-(2-isopropylaminoethylamino)benzenesulfonic 2-(cyclopropanecarbonylamino)benzothiazol-6-yl ester hydrochloride] |
| 205 nM | CC(C)N(CCNc1ccc(S(=O)(=O)Oc2ccc3nc(NC(=O)C4CC4)sc3c2)cc1)C(C)C [Example 12, 4-(2-diisopropylaminoethylamino)benzenesulfonic 2-(cyclopropanecarbonylamino)benzothiazol-6-yl ester] |
| 170 nM | CC(=O)Nc1nc2ccc(OS(=O)(=O)c3ccc(NCCNC(C)C)cc3)cc2s1 [Example 65, 4-(2-isopropylaminoethylamino)benzenesulfonic acid 2-acetylaminobenzothiazol-6-yl ester] |
| 125 nM | CCC(=O)Nc1nc2ccc(OS(=O)(=O)c3ccc(NCCN(C(C)C)C(C)C)cc3)cc2s1 [Example 57, 4-(2-diisopropylaminoethylamino)benzenesulfonic acid 2-propionylaminobenzothiazol-6-yl ester hydrochloride] |
| 119 nM | CC(=O)Nc1nc2ccc(OS(=O)(=O)c3ccc(NCCN(C(C)C)C(C)C)cc3)cc2s1 [Example 43, 4-(2-Diisopropylaminoethylamino)benzenesulfonic acid 2-acetylaminobenzothiazol-6-yl ester] |
